Measured values published in patent publication EP2100894A1, “Pyridopyrimidines used as Plk1 (polo-like kinase) inhibitors” (4SC AG, priority 2008, dated 2009).

Target: T1, PIk1 (Homo sapiens, UniProt P53350)
T1 construct: His tag (histidine tag) (N); made in house; host or cells: SF9 insect cells
Experiment: PIk1 kinase activity inhibition assay (33P incorporation into alpha casein, flash plates)
Format: biochemical
Conditions: recombinant N-terminally histidine-tagged PIk1, alpha casein as substrate, 100 nM Li-ATP, 80 minutes at 30°C
Method in brief: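 N-terminally His-tagged human Plk1 from SF9 cells (50–100 ng/well) phosphorylated alpha casein with 100 nM Li-ATP plus 33P-ATP in HEPES pH 7.5, MgCl2/MnCl2 buffer for 80 minutes at 30°C. After H3PO4 stop and washing, casein-bound 33P was counted on scintillator-coated flash plates to derive IC50.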

T1 sequence (P53350 whole entry): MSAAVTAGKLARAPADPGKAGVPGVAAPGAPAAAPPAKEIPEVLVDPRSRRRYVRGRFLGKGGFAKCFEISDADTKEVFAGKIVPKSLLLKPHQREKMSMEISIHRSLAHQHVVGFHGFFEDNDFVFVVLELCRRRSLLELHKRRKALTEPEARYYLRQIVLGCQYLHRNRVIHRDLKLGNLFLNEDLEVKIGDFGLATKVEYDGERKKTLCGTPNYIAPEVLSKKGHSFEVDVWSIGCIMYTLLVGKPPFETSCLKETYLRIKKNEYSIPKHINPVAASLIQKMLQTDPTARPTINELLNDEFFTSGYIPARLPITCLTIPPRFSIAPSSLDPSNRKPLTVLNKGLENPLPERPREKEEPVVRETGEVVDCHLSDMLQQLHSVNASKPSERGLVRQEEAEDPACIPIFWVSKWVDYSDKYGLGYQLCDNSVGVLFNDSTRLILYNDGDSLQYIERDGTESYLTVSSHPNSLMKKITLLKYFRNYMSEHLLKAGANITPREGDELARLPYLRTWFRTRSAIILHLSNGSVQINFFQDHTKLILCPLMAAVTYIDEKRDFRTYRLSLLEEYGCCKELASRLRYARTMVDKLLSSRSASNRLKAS

Row | SMILES | IC50 [nM]
1 | COc1cc(C(=O)NC2CCN(C)CC2)ccc1Nc1ncc2c(n1)c(-c1ccsc1)c(OC1CC1)c(=O)n2C [Example 58, 4-{[7-(cyclopropyloxy)-5-methyl-6-oxo-8-(3-thienyl)-5,6-dihydropyri-do[3,2-d]pyrimidin-2-yl]amino}-3-methoxy-N-(1-methylpiperidin-4-yl)benzamide] | < 10
2 | COc1cc(C(=O)NC2CCN(C)CC2)ccc1Nc1ncc2c(n1)c(-c1ccoc1)c(OC)c(=O)n2C [Example 11, 4-{[8-(3-furyl)-7-methoxy-5-methyl-6-oxo-5,6-dihydropyrido[3,2-d]pyrimidin-2-yl]amino}-3-methoxy-N-(1-methylpiperidin-4-yl)benzamide] | < 100
3 | C/C=C/c1c(OCC)c(=O)n(C)c2cnc(Nc3ccc(C(=O)NC4CCN(C)CC4)cc3OC)nc12 [Example 18, 4-({7-ethoxy-5-methyl-6-oxo-8-[(1E)-prop-1-en-1-yl]-5,6-dihydropyrido[3,2-d]pyrimidin-2-yl}amino)-3-methoxy-N-(1-methylpiperidin-4-yl)benzamide] | < 100
4 | COc1cc(C(=O)NC2CCN(C)CC2)ccc1Nc1ncc2c(n1)c(-c1cc(C)cs1)c(OCC1CC1)c(=O)n2C [Example 55, 4-{[7-(cyclopropylmethoxy)-5-methyl-8-(4-methyl-2-thienyl)-6-oxo-5,6-dihydropyrido[3,2-d]pyrimidin-2-yl]amino}-3-methoxy-N-(1-methylpiperidin-4-yl)benzamide] | < 10
5 | COc1cc(C(=O)NC2CCN(C)CC2)ccc1Nc1ncc2c(n1)c(-c1ccsc1)c(OC)c(=O)n2C [Example 4, 3-methoxy-4-{[7-methoxy-5-methyl-6-oxo-8-(3-thienyl)-5,6-dihydro-pyrido[3,2-d]pyrimidin-2-yl]amino}-N-(1-methylpiperidin-4-yl)benzamide] | < 10
6 | C/C=C/c1c(OCC(C)C)c(=O)n(C)c2cnc(Nc3ccc(C(=O)NC4CCN(C)CC4)cc3OC)nc12 [Example 41, 4-({7-isobutoxy-5-methyl-6-oxo-8-[(1E)-prop-1-en-1-yl]-5,6-dihydro-pyrido[3,2-d]pyrimidin-2-yl}amino)-3-methoxy-N-(1-methylpiperidin-4-yl)benzamide] | < 10
